Source: ChEMBL document CHEMBL2321853, “Novel acylethanolamide derivatives that modulate body weight through enhancement of hypothalamic pro-opiomelanocortin (POMC) and/or decreased neuropeptide Y (NPY)” (J Med Chem, 2013)
Active and inactive are the calls of the source. The calls are words filed in the database; no cut-off is given here.

Assays:
[1] = system: Mus musculus; assay: Antiobesity activity in Sabra mouse assessed as change in body weight at 1 mg/kg, ip administered on day 8, 9, 10, 11, 14, 18, 24 and 32 measured on day 4 relative to control; type: functional; conditions: route intraperitoneal
[2] = system: Mus musculus; assay: Antiobesity activity in Sabra mouse assessed as reduction in body weight at 1 mg/kg, ip administered on day 0, 10, 11, 12, 24, 29 measured on day 29 relative to control; type: functional; design: scale not given: the % may be the effect or the level left; conditions: route intraperitoneal
[3] = system: Mus musculus; assay: Antiobesity activity in Sabra mouse assessed as reduction in body weight at 1 mg/kg, ip administered on day 0, 10, 11, 12, 24, 29 measured on day 19 relative to control; type: functional; design: scale not given: the % may be the effect or the level left; conditions: route intraperitoneal
[4] = system: Mus musculus; assay: Antiobesity activity in C57BL/6 mouse assessed as change in glucose level in blood at 5 mg/kg, ip administered on day 1, 4, 5, 7, 17, 15, 19 measured on day 11 relative to control; type: functional; conditions: route intraperitoneal
[5] = system: Mus musculus; assay: Antiobesity activity in C57BL/6 mouse assessed as change in glucose level in blood at 5 mg/kg, ip administered on day 1, 4, 5, 7, 17, 15, 19 measured on day 5 relative to control; type: functional; conditions: route intraperitoneal
[6] = system: Mus musculus; assay: Antiobesity activity in C57BL/6 mouse assessed as weight loss at 5 mg/kg, ip administered on day 1, 4, 5, 7, 17, 15, 19 measured on day 15 relative to control; type: functional; conditions: route intraperitoneal
[7] = system: Mus musculus; assay: Antiobesity activity in C57BL/6 mouse assessed as weight loss at 5 mg/kg, ip administered on day 1, 4, 5, 7, 17, 15, 19 measured on day 11 relative to control; type: functional; conditions: route intraperitoneal
[8] = system: Mus musculus; assay: Antiobesity activity in C57BL/6 mouse assessed as weight loss at 5 mg/kg, ip administered on day 1, 4, 5, 7, 17, 15, 19 measured on day 9 relative to control; type: functional; conditions: route intraperitoneal
[9] = system: Mus musculus; assay: Antiobesity activity in Sabra mouse assessed as change in body weight at 1 mg/kg, ip administered on day 8, 12 and 43 measured on day 54 relative to control; type: functional; conditions: route intraperitoneal
[10] = system: Mus musculus; assay: Antiobesity activity in Sabra mouse assessed as change in body weight at 1 mg/kg, ip administered on day 8, 12 and 43 measured on day 43 relative to control; type: functional; conditions: route intraperitoneal
[11] = system: Mus musculus; assay: Antiobesity activity in Sabra mouse assessed as change in body weight at 1 mg/kg, ip administered on day 8, 12 and 43 measured on day 36 relative to control; type: functional; conditions: route intraperitoneal
[12] = system: Mus musculus; assay: Antiobesity activity in Sabra mouse assessed as change in body weight at 1 mg/kg, ip administered on day 8, 12 and 43 measured on day 33 relative to control; type: functional; conditions: route intraperitoneal
[13] = system: Mus musculus; assay: Toxicity in Sabra mouse assessed as morphological changes in glial cells at 1 mg/kg, ip administered on day 8, 9, 10, 11, 14, 18, 24 and 32 by hematoxylin and eosin staining-based histopathological analysis; type: organism-based; design: dose 1 mg/kg, route intraperitoneal; conditions: in vivo
[14] = system: Mus musculus; assay: Antiobesity activity in leptin-deficient ob/ob mouse assessed as reduction in body weight at 10 mg/kg via oral gavage; type: functional, organism-based; design: dose 10 mg/kg
[15] = system: Mus musculus; assay: Enhancement of cognitive function C57BL/6 mouse assessed as reduction food consumption at 1 mg/kg, ip administered on day 3, 6, 8, 9, 10 measured on day 10; type: functional, organism-based; design: dose 1 mg/kg
[16] = system: Mus musculus; assay: Enhancement of motor activity in Sabra mouse at 10 mg/kg, ip administered on day 6 to 10 by open field test relative to control; type: functional; conditions: route intraperitoneal
[17] = system: Mus musculus; assay: Antiobesity activity in Sabra mouse assessed as reduction in body weight at 10 mg/kg, ip administered on day 6 to 10 measured on day 16 relative to control; type: functional; design: scale not given: the % may be the effect or the level left; conditions: route intraperitoneal
[18] = system: Mus musculus; assay: Antiobesity activity in Sabra mouse assessed as reduction in body weight at 1 mg/kg, ip administered on day 6 to 10 measured on day 16 relative to control; type: functional; design: scale not given: the % may be the effect or the level left; conditions: route intraperitoneal
[19] = system: Hypothalamus; assay: Decrease in 2-AG level in Sabra mouse hypothalamus at 8 mg/kg, ip for 39 days (reference value: 100 +/- 7 %); type: functional; design: scale not given: the % may be the effect or the level left; conditions: route intraperitoneal
[20] = system: Hypothalamus; assay: Effect on CART gene expression in Sabra mouse hypothalamus assessed as change in mRNA level at 1 mg/kg, ip administered on day 8, 9, 10, 11, 14, 18, 24 and 32 by RT-PCR analysis relative to GAPDH; type: functional; conditions: route intraperitoneal
[21] = system: Hypothalamus; assay: Effect on POMC gene expression in Sabra mouse hypothalamus assessed as change in mRNA level at 1 mg/kg, ip administered on day 8, 9, 10, 11, 14, 18, 24 and 32 by RT-PCR analysis relative to GAPDH; type: functional; conditions: route intraperitoneal
[22] = molecular target: Cannabinoid receptor 2 (Homo sapiens) (UniProt P34972); assay: Displacement of [3H]WIN-55,212-2 from human recombinant CB2 receptor expressed in CHO-K1 cells at 10 uM relative to control; type: cell-based
Chain of Cannabinoid receptor 2 (Homo sapiens) (P34972 whole entry): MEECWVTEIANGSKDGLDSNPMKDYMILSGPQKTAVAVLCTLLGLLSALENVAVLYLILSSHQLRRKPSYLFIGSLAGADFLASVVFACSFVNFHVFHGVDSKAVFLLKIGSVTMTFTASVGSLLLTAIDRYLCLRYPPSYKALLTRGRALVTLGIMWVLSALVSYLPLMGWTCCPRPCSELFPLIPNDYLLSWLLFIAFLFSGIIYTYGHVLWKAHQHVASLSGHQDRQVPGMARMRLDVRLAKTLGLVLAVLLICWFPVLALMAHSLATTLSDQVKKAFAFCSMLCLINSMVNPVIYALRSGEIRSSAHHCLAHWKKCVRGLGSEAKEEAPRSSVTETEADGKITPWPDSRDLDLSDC

[23] = molecular target: Cannabinoid receptor 1 (Homo sapiens) (UniProt P21554); assay: Displacement of [3H]SR141716A from human CB1 receptor expressed in rat Chem-1 cell membrane at 10 uM relative to control; type: cell membranes
Chain of Cannabinoid receptor 1 (Homo sapiens) (P21554 whole entry): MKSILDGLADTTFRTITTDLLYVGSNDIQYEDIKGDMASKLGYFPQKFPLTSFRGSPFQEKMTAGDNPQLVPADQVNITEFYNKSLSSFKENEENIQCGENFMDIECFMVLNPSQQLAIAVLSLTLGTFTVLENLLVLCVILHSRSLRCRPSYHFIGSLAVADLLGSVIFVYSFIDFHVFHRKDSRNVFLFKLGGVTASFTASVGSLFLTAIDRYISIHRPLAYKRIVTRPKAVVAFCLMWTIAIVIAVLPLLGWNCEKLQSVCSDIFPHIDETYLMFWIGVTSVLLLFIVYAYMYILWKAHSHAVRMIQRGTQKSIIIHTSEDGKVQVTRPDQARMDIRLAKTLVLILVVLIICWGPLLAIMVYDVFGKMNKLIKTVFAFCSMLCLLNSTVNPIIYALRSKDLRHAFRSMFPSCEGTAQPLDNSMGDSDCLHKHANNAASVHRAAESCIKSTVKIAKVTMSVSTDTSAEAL

[24] = molecular target: T1, Peroxisome proliferator-activated receptor alpha (Homo sapiens) (UniProt Q07869); assay: Binding affinity to human recombinant PPARalpha expressed in Escherichia coli at 10 uM for 16 hrs by spectrofluorimetric analysis relative to control
T1 sequence (whole entry): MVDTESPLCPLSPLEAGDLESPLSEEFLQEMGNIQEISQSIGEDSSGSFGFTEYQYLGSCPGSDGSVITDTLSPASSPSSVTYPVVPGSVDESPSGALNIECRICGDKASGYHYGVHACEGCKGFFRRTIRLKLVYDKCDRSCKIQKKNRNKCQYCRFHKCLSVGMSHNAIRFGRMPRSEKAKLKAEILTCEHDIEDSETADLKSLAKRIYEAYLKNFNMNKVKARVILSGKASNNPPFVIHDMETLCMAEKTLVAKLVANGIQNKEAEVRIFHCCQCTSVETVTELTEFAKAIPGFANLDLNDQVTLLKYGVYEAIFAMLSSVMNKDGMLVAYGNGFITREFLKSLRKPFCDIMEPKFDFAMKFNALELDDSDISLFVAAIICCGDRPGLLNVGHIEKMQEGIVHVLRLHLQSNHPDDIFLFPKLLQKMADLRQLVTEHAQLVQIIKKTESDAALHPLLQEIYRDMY

[25] = system: Hypothalamus; assay: Effect on POMC gene expression in Sabra mouse hypothalamus assessed as increase in mRNA level at 10 mg/kg, ip administered on day 6 to 10 measured on day 16 by RT-PCR analysis relative to control; type: functional; conditions: route intraperitoneal
[26] = system: Mus musculus; assay: Antiobesity activity in Sabra mouse assessed as reduction in body weight at 10 mg/kg, administered for 6 to 51 days via oral gavage measured on day 52 relative to control; type: functional, organism-based; design: dose 10 mg/kg
[27] = system: Mus musculus; assay: Antiobesity activity in Sabra mouse assessed as change in body weight at 1 mg/kg, ip administered on day 8, 9, 10, 11, 14, 18, 24 and 32 measured on day 39 relative to control; type: functional; conditions: route intraperitoneal
[28] = system: Mus musculus; assay: Antiobesity activity in Sabra mouse assessed as change in body weight at 1 mg/kg, ip administered on day 8, 9, 10, 11, 14, 18, 24 and 32 measured on day 25 relative to control; type: functional; conditions: route intraperitoneal

CCCCCCCC/C=C\CCCCCCCC(=O)N[C@H](CO)C(C)C
Activity [1]: 0.5%
Activity [2]: -5.98%
Activity [3]: -1.85%
Activity [4]: -17.3%
Activity [5]: -5.7%
Activity [6]: -4.7%
Activity [7]: -3.2%
Activity [8]: -3%
Activity [9]: -8.2%
Activity [10]: -7.5%
Activity [11]: -6.9%
Activity [12]: -5.2%
Activity [13]: Non-toxic
Activity [14]: inactive
Activity [15]: Active
Activity [16]: 30%
Activity [17]: 6.4%
Activity [18]: 4.6%
Activity [19]: 44.5%
Activity [20]: 15%
Activity [21]: 36%
inhibition [22]: 18%
inhibition [23]: 35%
Activity [24]: 2%
Activity [25]: 90%
Activity [26]: Active
Activity [27]: -6.4%
Activity [28]: -5%
